Test: xn = mol fraction of the nth substance listed
Settings: 101 kPa

CCCC[n+]1ccn(C)c1.F[P-](F)(F)(F)(F)F + CN(C)CCO
x2 = 0
Settings | electrical conductivity [S/m] | viscosity [mPa·s]
288.15 K | 0.105 | 350
293.15 K | 0.142 | 250
298.15 K | 0.185 | 182
303.15 K | 0.24 | 136
308.15 K | 0.309 | 102
313.15 K | 0.384 | 79
318.15 K | 0.421 | 62
323.15 K | 0.504 | 48

CCCC[n+]1ccn(C)c1.F[P-](F)(F)(F)(F)F + NCCO
Settings | electrical conductivity [S/m] | viscosity [mPa·s]
288.15 K, x2 = 0 | 0.105 | 350
288.15 K, x2 = 0.1185 | 0.124 | 220
288.15 K, x2 = 0.2113 | 0.144 | 172
288.15 K, x2 = 0.3052 | 0.165 | 141
288.15 K, x2 = 0.387 | 0.177 | –
288.15 K, x2 = 0.4282 | 0.178 | 107
288.15 K, x2 = 0.4761 | 0.186 | –
288.15 K, x2 = 0.4918 | 0.186 | 93
288.15 K, x2 = 0.5352 | 0.194 | –
288.15 K, x2 = 0.5871 | 0.2 | –
288.15 K, x2 = 0.6161 | 0.197 | 70
288.15 K, x2 = 0.6533 | 0.198 | –
288.15 K, x2 = 0.6984 | 0.194 | 58
288.15 K, x2 = 0.9592 | 0.0794 | –
293.15 K, x2 = 0 | 0.142 | 250
293.15 K, x2 = 0.1185 | 0.167 | 159
293.15 K, x2 = 0.2113 | 0.194 | 125
293.15 K, x2 = 0.4282 | 0.239 | 78
293.15 K, x2 = 0.4761 | 0.251 | –
293.15 K, x2 = 0.4918 | 0.25 | 68
293.15 K, x2 = 0.6161 | 0.262 | 52
293.15 K, x2 = 0.6533 | 0.264 | –
293.15 K, x2 = 0.6984 | 0.259 | 44
293.15 K, x2 = 0.8022 | 0.243 | 34
293.15 K, x2 = 0.9028 | 0.178 | 27
298.15 K, x2 = 0.1185 | 0.221 | 117
298.15 K, x2 = 0.387 | 0.309 | –
298.15 K, x2 = 0.4282 | 0.312 | 59
298.15 K, x2 = 0.4761 | 0.329 | –
298.15 K, x2 = 0.4918 | 0.325 | 52
298.15 K, x2 = 0.5871 | 0.347 | –
298.15 K, x2 = 0.6161 | 0.34 | 39
298.15 K, x2 = 0.6533 | 0.346 | –
298.15 K, x2 = 0.6984 | 0.34 | 33
298.15 K, x2 = 0.9028 | 0.226 | 21.3
298.15 K, x2 = 0.9592 | 0.131 | –
303.15 K, x2 = 0 | 0.24 | 136
303.15 K, x2 = 0.1185 | 0.286 | 87
303.15 K, x2 = 0.2113 | 0.33 | 70
303.15 K, x2 = 0.3052 | 0.378 | 58
303.15 K, x2 = 0.387 | 0.397 | –
303.15 K, x2 = 0.4282 | 0.4 | 45
303.15 K, x2 = 0.4761 | 0.424 | –
303.15 K, x2 = 0.4918 | 0.415 | 39
303.15 K, x2 = 0.5871 | 0.445 | –
303.15 K, x2 = 0.6161 | 0.432 | 30
303.15 K, x2 = 0.6533 | 0.441 | –
303.15 K, x2 = 0.8022 | 0.397 | 20.8
303.15 K, x2 = 0.9028 | 0.283 | 16.9
303.15 K, x2 = 0.9592 | 0.164 | –
308.15 K, x2 = 0 | 0.309 | 102
308.15 K, x2 = 0.1185 | 0.366 | 67
308.15 K, x2 = 0.2113 | 0.422 | 55
308.15 K, x2 = 0.3052 | 0.486 | 44
308.15 K, x2 = 0.4918 | 0.529 | 30
308.15 K, x2 = 0.5352 | 0.551 | –
308.15 K, x2 = 0.5871 | 0.565 | –
308.15 K, x2 = 0.6161 | 0.55 | 23.6
308.15 K, x2 = 0.6533 | 0.561 | –
308.15 K, x2 = 0.6984 | 0.552 | 20.2
308.15 K, x2 = 0.8022 | 0.495 | 16.3
308.15 K, x2 = 0.9028 | 0.351 | 13.5
308.15 K, x2 = 0.9592 | 0.204 | –
313.15 K, x2 = 0 | 0.384 | 79
313.15 K, x2 = 0.1185 | 0.455 | 53
313.15 K, x2 = 0.2113 | 0.524 | 42
313.15 K, x2 = 0.387 | 0.627 | –
313.15 K, x2 = 0.4282 | 0.635 | 27
313.15 K, x2 = 0.4918 | 0.665 | 24.4
313.15 K, x2 = 0.5871 | 0.698 | –
313.15 K, x2 = 0.6161 | 0.676 | 18.8
313.15 K, x2 = 0.6533 | 0.693 | –
313.15 K, x2 = 0.6984 | 0.675 | 16.3
313.15 K, x2 = 0.8022 | 0.607 | 13.1
313.15 K, x2 = 0.9028 | 0.426 | 11
318.15 K, x2 = 0 | 0.421 | 62
318.15 K, x2 = 0.1185 | 0.558 | 42
318.15 K, x2 = 0.2113 | 0.641 | 34
318.15 K, x2 = 0.387 | 0.766 | –
318.15 K, x2 = 0.4761 | 0.813 | –
318.15 K, x2 = 0.5352 | 0.825 | –
318.15 K, x2 = 0.5871 | 0.846 | –
318.15 K, x2 = 0.6161 | 0.82 | 15.3
318.15 K, x2 = 0.6533 | 0.843 | –
318.15 K, x2 = 0.6984 | 0.821 | 12.8
318.15 K, x2 = 0.8022 | 0.731 | 10.8
318.15 K, x2 = 0.9028 | 0.526 | 9.1
318.15 K, x2 = 0.9592 | 0.3 | –
323.15 K, x2 = 0.1185 | 0.665 | 35
323.15 K, x2 = 0.2113 | 0.76 | 28
323.15 K, x2 = 0.387 | 0.915 | –
323.15 K, x2 = 0.4282 | 0.918 | 18.3
323.15 K, x2 = 0.4918 | 0.945 | 16.1
323.15 K, x2 = 0.5871 | 1 | –
323.15 K, x2 = 0.6161 | 0.971 | 12.8
323.15 K, x2 = 0.6533 | 0.999 | –
323.15 K, x2 = 0.6984 | 0.972 | 11.1
323.15 K, x2 = 0.8022 | 0.861 | 9.1
323.15 K, x2 = 0.9028 | 0.619 | 7.7
323.15 K, x2 = 0.9592 | 0.351 | –
